Data reported in patent publication US20010020032A1, “COATED PARTICLE FORMULATION” (priority 1996, published 2001).

What was measured:
[1] = Detection of radiolabelled compound in saliva; type: in vivo
Procedure: Olanzapine is effective over a wide dosage range, the actual dose administered being dependent on the condition being treated. For example, in the treatment of adult humans, dosages of from about 0.25 to 50 mg, preferably from 1 to 30 mg, and most preferably 1 to 25 mg per day may be used. A once a day dosage is normally sufficient, although divided doses may be administered. For treatment of central nervous system disorders, a dose range of from 1 to 30 mg, preferably 1 to 25 mg per day is suitable.

[2] = Stability studies: discoloration on storage or excipient contact; type: physicochemical; conditions: olanzapine substance in contact with polyethylene glycol, particularly under moist conditions
[3] = Polymorphic stability of Form II on solvent contact; type: physicochemical; conditions: contact with methylene chloride

For `Cc1cc2c(s1)Nc1ccccc1N=C2N1CCN(C)CC1` [Radiolabelled Form II, 2-methyl-4-(4-methyl-1-piperazinyl)-10H-thieno-[2,3-b][1,5]benzodiazepine], the detection in saliva [1] was “can be detected in the saliva”.

With `Cc1cc2c(s1)Nc1ccccc1N=C2N1CCN(C)CC1` [olanzapine, 2-methyl-4-(4-methyl-1-piperazinyl)-10H-thieno[2,3-b][1,5] benzodiazepine] the “discoloration on polyethylene glycol contact” value [2] was “produces undesired discoloration”.

For `Cc1cc2c(s1)Nc1ccccc1N=C2N1CCN(C)CC1` [Form II, 2-methyl-4-(4-methyl-1-piperazinyl)-10H-thieno[2,3-b][1,5]benzodiazepine], the “conversion to other polymorphic forms” value [3] was “can be converted to less desirable polymorphic forms”.
